In patent publication US20090117089A1, “GLYCOLIPIDS AND ANALOGUES THEREOF AS ANTIGENS FOR NK T CELLS” (The Rockefeller University, priority 2005, published 2009):
Entries after “also recorded” stand apart in the source; their conditions may differ.

What was measured:
[1] = test system: Vα24i human NKT cell line; assay: In vitro cytokine secretion assay using human NKT cell lines; type: cell-based; conditions: for IFN-γ secretion / IL-4 secretion: CD14+ immature dendritic cells, 10 μg/ml glycolipid (1-10 μg/ml for 3-O-sulfo-α-galactosylceramide), 10 IU/ml IL-2
Protocol: (§1) Human NKT cell lines, expressing the Vα24i T cell receptor as well as CD161, were generated as follows: Anti-CD161 monoclonal antibodies, and anti-CD14 monoclonal antibodies, each coupled to magnetic beads (Miltenyi biotec, Auburn, Calif.), were used sequentially to isolate CD161^+ cells and CD14^+ cells from leukopaks. Immature dendritic cells were generated from the CD14^+ cells after a two-day incubation in the presence of 300 U/ml GM-CSF (R&D systems, Minneapolis, Minn.) and 100 U/ml IL-4 (R&D systems, Minneapolis, Minn.). Following irradiation with 2000 rads, the immature dendritic cells were co-cultured with syngeneic CD161^+ cells in the presence of 100 ng/ml of alpha-galactosylceramide and 10 IU/ml of IL-2 (Invitrogen, Carlsbad Calif.) for 10 to 14 days. After stimulating the CD161^+ cells a second time with alpha-galactosylceramide-pulsed, irradiated immature dendritic cells, NKT cell lines were shown by flow cytometry to express both CD161^+ and V 24i TCR (99% purity).
(§2) IFN-γ and IL-4 secretion by the Vα 24i human NKT cell line was determined by ELISA (BD Pharmingen, San Diego, Calif.) after culture for 16 hours. For these assays, 1×10^5 Vα 24i human NKT cells were co-cultured with 4×10^5 irradiated, immature CD14^+ dendritic cells, in the presence of the glycolipid compounds at 10 μg/ml in a 96-well flat-bottom plate.
as §1, with “of 100-0.1” for “of 100”
In some cases, Hela cells were transfected with a human CD1d construct [Xing et al. 2005. Bioorg Med Chem 13: 2907], and were used to present the glycolipids, via pulsing with the respective compounds at the indicated concentration, to NKT lines.
as §2, with “IFN-γ” for “IFN-γ and IL-4”

[2] = test system: human CD161+ NK+NKT cells; assay: Cytokine secretion by human CD161+ NK+NKT cells in the presence of CD14+ DCs; type: cell-based
Protocol: Human Vα24i NKT cells response to synthetic Sphingomonas and sulfatide glycolipids, in terms of IFN-γ (a) and IL-4 (b) release after culture with 4×10^5 autologous immature CD14+ dendritic cells pulsed with the indicated glycolipid antigens at 10 μg/ml. Negative controls included similar numbers of NKT cells and dendritic cells, cultured without added glycolipid. Data represent mean±S.D. of duplicate well; (c) in vitro INF-γ secretion by human CD161^+ NK+NKT cells (2×10^5/well) in the presence of CD14^+ DCs (4×10^5/well) and 20 μg/ml of various glycolipids; (d) in vitro IL-4 secretion by human CD161^+ NK+NKT cells (2×10^5/well) in the presence of CD14^+ DCs (4×10^5/well) and 20 μg/ml of various glycolipids.

[3] = test system: CD1d reactive T cell hybridomas with an invariant Vα14i T cell antigen receptor; assay: 1.2 hybridoma assay (IL-2 release by ELISA); type: cell-based, mouse; conditions: for IL-2 production (relative activity of fatty acyl chain analogs): 0.0001-1 μg/ml, CD1d transfected A20 cells; for IL-2 secretion: CD1d coated plates, Sphingomonas glycolipids and analogues
Protocol: As a measure of T cell activation, IL-2 release into the tissue culture medium was measured after 16 hours culture by an ELISA assay.
As a measure of T cell activation, IL-2 and IFN-γ release into the tissue culture medium was measured after 16 hours culture by an ELISA assay.

[4] = test system: Vα24i human NKT cell line; assay: In vitro cytokine secretion assay using human NKT cell lines; type: cell-based; conditions: CD14+ DCs; 100-0.1 ng/mL; all doses
spleen CD11c+ DCs = assay: DC maturation in vivo (surface markers, flow cytometry); parameters: species or system mouse; conditions: mouse, in vivo
Protocol: 2×10^7 irradiated J558-Ld^− cells, were injected i.v. or s.c. into Balb/c mice with or without α-Gal Cer as a DC maturation stimulus. In some experiments we compared α-Gal Cer to agonistic anti-CD40 mAb (1C10, 25 μg i.p.) or the toll like receptor ligands, poly IC ([…], Invivogen) or lipopolysaccharide (20 μgm, Sigma). The mice had been given CFSE-labeled PICTL CD8^+ T cells i.v. 1 d earlier, or were naive animals. In some experiments, mice were sacrificed 3 d later, and T cell division and activation in spleen were analyzed by flow cytometry. Additionally, 7 d or 2 months later, 5×10^6 live J558 tumor cells were inoculated subcutaneously. 5×10^6 Meth A fibrosarcoma was used as a control tumor for challenge. Tumor cell growth was measured with calipers every other day. Mice were scored positive for tumor as soon as tumors became palpable and grew progressively. Mice were euthanized when tumor size exceeded 400 mm^2.
T-cell division, phagocytosis of CFSE-labeled tumor cells and acquisition of cell surface-activation markers were determined by flow cytometry. Briefly, spleens were harvested and low-density splenocytes were stained with CD11c-APC and CD8α-PE, CD11b-PE, B220-PE or CD4-PE for the up-take examination. For in vivo proliferation of P1CTL T-cells, spleens were harvested and the splenocytes suspension was staining with CD8α-Cy, Vα8α-PE, CD25-PE, CD62L-PE. For intracellular cytokine staining, splenocytes were stimulated in vitro with 1 µg/ml P1A peptide in 5 μg/ml brefeldin A (Sigma-Aldrich) at 37° C. for 4 hrs. The cells were first stained with CD8α-Cy-Chrome™, fixed and permeabilized with cytofix-cytoperm buffer (BD Biosciences), and stained with PE conjugated mAbs to IL-2 or IFN-γ.
Flow cytometry. Acquisition of cell surface-activation markers was determined by flow cytometry. […] Spleen CD11c+ DCs were isolated using anti-CD11c magnetic beads and stained with CD11c-FITC, CD8α− allophycocyanin, and PE-Conjugated I-Ad, CD40, CD80, CD86, CD119, B7-H1 and B7-DC. We used a FACSCalibur™ with data analysis in FlowJo (Tree Star).

CCCCCCCCCCCCCCC[C@@H](O)[C@H](COC1OC(C(=O)O)C(O)C(O)C1O)NC(=O)[C@@H](O)CCCCCCCCCCCC (some centres unmarked) [Compound 6]
reactivity of human Vα24i NKT cells [1]: conserved

3-O-sulfo-β-galactosylceramide [Compound 10]
IFN-γ secretion [1]: elicit both IFN-γ and IL-4 production | IL-4 secretion [1]: elicit both IFN-γ and IL-4 production | affinity for NKT lymphocytes [2]: minimal to no affinity for NKT lymphocytes

CCCCCCCCCCCCCC[C@@H](O)[C@@H](O)[C@H](COC1OC(CO)C(O)C(O)C1O)NC(=O)CCCCCCCc1ccccc1 (some centres unmarked) [Compound 84]
IL-2 production (relative activity of fatty acyl chain analogs) [3]: significant increase of IL-2 production | IFN-γ secretion compared to KRN [4]: consistently stimulating greater IFN-γ secretion

CCCCCCCCCCCCCC[C@@H](O)[C@@H](O)[C@H](COC1OC(CO)C(O)C(O)C1O)NC(=O)CCCCCc1ccccc1 (some centres unmarked) [Compound 83]
IL-2 production (relative activity of fatty acyl chain analogs) [3]: significant increase of IL-2 production | selectivity IFN-γ versus IL-4 production [1]: high ratio of IFN-γ/IL-4 activity | IFN-γ secretion compared to KRN [4]: consistently stimulating greater IFN-γ secretion

CCCCCCCCCCCCCCC[C@@H](O)[C@H](COC1OC(C(=O)O)C(O)C(O)C1O)NC(=O)CCCCCCCCCCCCC (some centres unmarked) [Compound 5]
reactivity of human Vα24i NKT cells [1]: conserved

CCCCCCCCCCCCCCC[C@@H](O)[C@H](COC1OC(CO)C(O)C(O)C1O)NC(=O)CCCCCCCCCCCCC (some centres unmarked) [Compound 7]
IL-2 secretion [3]: greater IL-2 secretion

2-Hexacosylamino-1-O-(3-O-sulfo-α-D-galactopyranosyl)-D-ribo-1,3,4-octadecantriol, Sodium Salt [Compound 4]
biological activity in the 1.2 hybridoma assay (IL-2 secretion) [3]: caused significant IL-2 secretion | activity relative to αGalCer (dose response curves, IL-2) ([3]; data not shown): somewhat less active than αGalCer | IL-2 release from the hybridomas ([3]; glycolipid at 10 μg/ml, 16 hours culture): stimulated significant IL-2 release | IFN-γ secretion [1]: approximately half that of α-GalCer | IL-4 secretion [1]: approximately half that of α-GalCer | IL-4 secretion by human NKT cells ([2]; glycolipid presented by CD14+ DCs, 10-20 μg/mL): efficiently stimulated IL-4 and IFN-γ secretion | interferon-γ secretion by human NKT cells ([2]; glycolipid presented by CD14+ DCs, 10-20 μg/mL, compared to α-GalCer, Sodium Salt): superior; also recorded: efficiently stimulated IL-4 and IFN-γ secretion

CCCCCCCCCCCCCCC[C@@H](O)[C@H](COC1OC(CO)C(O)C(O)C1O)NC(=O)[C@@H](O)CCCCCCCCCCCC (some centres unmarked) [Compound 8]
IL-2 secretion [3]: less able to activate IL-2 secretion when compared with 5

poly IC
phenotypic changes of DC maturation (CD40, CD86, MHC class II, B7-H1, B7-DC up, CD119 down) (spleen CD11c+ DCs): induced similar phenotypic changes of maturation
